According to patent publication US6710051B1, “Screening method” (Klaus Trier APS, priority 1997, dated 2004):
Marks after values point to notes of the source that are not given here.

Key:
[1] = system: sclera; assay: Content of proteoglycanes in rabbit sclera after long term treatment (alcian blue method); type: in vivo; design: Proteoglycanes Decrease compared to the control, anterior sclera / Proteoglycanes Increase compared to the control, anterior sclera / Proteoglycanes Increase compared to the control, posterior sclera / Effect on proteoglycan content of posterior sclera in % compared to control: concentration or dose not given beside the values; conditions: for Content of proteoglycanes, anterior sclera / Content of proteoglycanes, posterior sclera: wet weight; for content of proteoglycans in posterior sclera (in words): Example 4, versus control; for Effect on proteoglycan content of posterior sclera in % compared to control: rabbit, Examples 2 and 4
Protocol: (§1) Test animal: Charles River Deutschland Chinchilla Bastard female rabbits.
(§2) Number of animals: 6 test animals and 6 control animals
(§3) Age: approximately 8 weeks at the commencement of the test.
(§4) Weight: 1.4-1.9 kg at the commencement of the test.
Lightness/Darkness cycle: 12/12 hours.
(§5) Cages: The animals live in identical cages made of stainless steel (Scanbur), length 1 m, depth 0.52 m, height 0.5 m.
Food: Stanrab standard diet from Special Diet Services, P.O. Box 705, Witham Essex CM8 3AD, UK (further details, see Table A).
(§6) Amount of food: Increasing from 75 g per day at the commencement of the test up to 130 g after three months.
(§7) Experimental drinking water 1 contained theophyllin in a dose equivalent of 27 mg increasing to 63 mg (added as theophyllin and ethylendiamin in a dose of 33 to 77 mg) daily.
(§8) Experimental drinking water 2 contained fluoxetine (Fontex, Lilly) in a dose equivalent of 2 mg increasing to 5 mg daily.
Experimental diet 2 was added 4.5 g L-cystine per kg Stanrab standard diet equivalent of a daily L-cystine dose of 338 mg increasing to 585 mg per day. With respect to the supplement of L-cystine, the normal intake per day of the standard diet is 218 mg increasing to 377 mg L-cystine.
(§9) Experimental diet 3 was added 7-methylxanthine 500 mg per kg Stanrab standard diet equivalent of a daily 7-methylxanthine dose of […] per day.
(§10) Experimental diet 4 was added theobromine (3,7-dimethylxanthine) 500 mg per kg Stanrab standard diet equivalent of a daily theobromine dose of […] per day.
(§11) Experimental diet 5 was added acetazolamide 500 mg per kg Stanrab standard diet equivalent of a daily acetazolamide dose of […] per day.
Experimental diet 6 was added 4.5 g L-ornithine per kg Stanrab standard diet equivalent of a daily L-ornithine dose of 338 mg increasing to 585 mg per day.
(§12) Collection of sample: Sclera biopsies are taken for analysis for proteoglycane content, distribution between the individual glycosaminoglycanes and the content of collagen specific amino acids. Four tests from each animal: Two samples from the front, 5×10 mm along limbus (without cornea), and two samples from the back, punch 10 mm corresponding to the center of the retina. Furthermore, tests are taken for electron microscopy (EM) from two animals in each group.
Analyses: Samples for proteoglycane analysis are frozen down immediately. The samples are analyzed by Wieslab AB, IDEON, S-223 70 Lund, Sweden, by means of a method which has been described by Björnsson, S., Analytical Biochemistry 210, 282-291 (1993). The method comprises extraction by 20 microliters of 4 M guanidine-HCl, 50 Mm sodium acetate per mg wet weight over night by room temperatures. The extracts are centrifuged in order to remove debris. 20 microliters of supernatant are reduced 1/10 in extraction buffer and 20 microliters of reduced supernatant are mixed with 10 microliters of reagent 1 (see Björnsson, S., Analytical biochemistry 210, 282-291 (1993)) on a shaking table for 15 minutes. 200 microliters of reagent 2 are added and the tests are incubated for 60 minutes in order to precipitate the proteoglycanes. The proteoglycane/alcian blue precipitate is transferred to 96-wells MillBlotD apparatus and washed with 2×200 microliters of 40% DMSO, 0.05 M of MgCl2. The colour intensity of the wells are quantitated by microtech E3 scanner and Scan Analysis software (Biosoft, Cambridge, U.K.). Chrondroitine-6-sulphate (Sigma C4384) is used as the calibrator. All samples are analyzed in duplicate.
The results of longterm treatment with each of the 8 substances specified above are shown in Example 2 (treatment for 12 weeks) and Example 4 (treatment for 10 weeks).

[2] = system: sclera; assay: Content of collagen specific amino acids in rabbit sclera after long term treatment (HPLC); type: in vivo; design: Hydroxylysine Decr. compared to the control / Hydroxyproline Inc. compared to the control / Proline Inc. compared to the control: concentration or dose not given beside the values; conditions: for Hydroxylysine Decr. compared to the control / Hydroxylysine content / Hydroxyproline content / Proline content / Hydroxyproline Inc. compared to the control / Proline Inc. compared to the control: 3 months treatment; for Hydroxylysine content / Hydroxyproline content / Proline content: dried defatted weight
Source text: as §1, §2, §3, §4, §5, §6, §7, §8, §9, §10, §11, §12
Samples for analysis for content of collagen specific amino acids are frozen down immediately. The amino acid content is determined by HPLC-chromatography.
The dried tissue with constant weight is minced into very fine particles with a pair of scissors, approximately 20 per piece of tissue. The small flakes from each original piece of tissue ate divided into two equally sized portions, one of which is employed for hydrolysis and the other one is kept for reference. The constant dry weight of each portion is known.
From each resolubilized hydrolysate 3 aliquots of each 8 microliters and 3 aliquots of 40 μl are taken and transferred to separate polypropylene tubes in which 20 microliters of a solution of internal standard substances citrulline and 2 aminobutyric acid were added where the further method takes place.
The taken aliquots from hydrolysate are dried in a vacuum exsiccator at 35° C. over night and subsequently submitted to derivatization with phenylisothiocyanate.
The resulting phenylisothiocarbamates are transferred to the HPLC instrument for separation and quantification. A new set of calibration curves is established, 1 curve for each of the 19 amino acids, prior to the analysis of the samples from one investigation.
The concentration range of standard samples exceed the ranges of amino acid concentrations in the unknowns. Hydroxyproline and proline are quantitated from the 8 microliter aliquots, and hydroxylysine is quantitated from the 40 microliter aliquots.

[3] = system: sclera; assay: as above; type: in vivo; conditions: dried defatted weight, 10 weeks treatment (Example 4)
[4] = target: T1, skeletal RyR (Oryctolagus cuniculus, UniProt P11716); conditions: cited from earlier work; for Effect on [3H ryanodine binding in % compared to control: values of Table 3 without AMP/AMPPCP, caffeine represented by 1,7-dimethylxanthine; for Bound [3H]ryanodine % of control / Bound [3H]ryanodine pmol/mg protein / Bound [3H]ryanodine, % of control, +1 mmol/l AMPPCP / Bound [3H]ryanodine, % of control, +3 mmol/l AMP: xanthine […]; for Bound [3H]ryanodine % of control / Bound [3H]ryanodine pmol/mg protein: 1 mmol/l AMPPCP; for Bound [3H]ryanodine % of control / Bound [3H]ryanodine, % of control, +1 mmol/l AMPPCP / Bound [3H]ryanodine, % of control, +3 mmol/l AMP: control (-xanthine) = 100; for Bound [3H]ryanodine pmol/mg protein: means±SD of 3-4 experiments
T1 construct: Structure-activity Relationship of Xanthines and Skeletal Muscle Ryanodine Receptor/Ca^2+ Release Channel; from tissue; host or cells: Skeletal muscle

[5] = posterior sclera, 10 weeks treatment (Example 4)

T1 sequence (P11716 whole entry): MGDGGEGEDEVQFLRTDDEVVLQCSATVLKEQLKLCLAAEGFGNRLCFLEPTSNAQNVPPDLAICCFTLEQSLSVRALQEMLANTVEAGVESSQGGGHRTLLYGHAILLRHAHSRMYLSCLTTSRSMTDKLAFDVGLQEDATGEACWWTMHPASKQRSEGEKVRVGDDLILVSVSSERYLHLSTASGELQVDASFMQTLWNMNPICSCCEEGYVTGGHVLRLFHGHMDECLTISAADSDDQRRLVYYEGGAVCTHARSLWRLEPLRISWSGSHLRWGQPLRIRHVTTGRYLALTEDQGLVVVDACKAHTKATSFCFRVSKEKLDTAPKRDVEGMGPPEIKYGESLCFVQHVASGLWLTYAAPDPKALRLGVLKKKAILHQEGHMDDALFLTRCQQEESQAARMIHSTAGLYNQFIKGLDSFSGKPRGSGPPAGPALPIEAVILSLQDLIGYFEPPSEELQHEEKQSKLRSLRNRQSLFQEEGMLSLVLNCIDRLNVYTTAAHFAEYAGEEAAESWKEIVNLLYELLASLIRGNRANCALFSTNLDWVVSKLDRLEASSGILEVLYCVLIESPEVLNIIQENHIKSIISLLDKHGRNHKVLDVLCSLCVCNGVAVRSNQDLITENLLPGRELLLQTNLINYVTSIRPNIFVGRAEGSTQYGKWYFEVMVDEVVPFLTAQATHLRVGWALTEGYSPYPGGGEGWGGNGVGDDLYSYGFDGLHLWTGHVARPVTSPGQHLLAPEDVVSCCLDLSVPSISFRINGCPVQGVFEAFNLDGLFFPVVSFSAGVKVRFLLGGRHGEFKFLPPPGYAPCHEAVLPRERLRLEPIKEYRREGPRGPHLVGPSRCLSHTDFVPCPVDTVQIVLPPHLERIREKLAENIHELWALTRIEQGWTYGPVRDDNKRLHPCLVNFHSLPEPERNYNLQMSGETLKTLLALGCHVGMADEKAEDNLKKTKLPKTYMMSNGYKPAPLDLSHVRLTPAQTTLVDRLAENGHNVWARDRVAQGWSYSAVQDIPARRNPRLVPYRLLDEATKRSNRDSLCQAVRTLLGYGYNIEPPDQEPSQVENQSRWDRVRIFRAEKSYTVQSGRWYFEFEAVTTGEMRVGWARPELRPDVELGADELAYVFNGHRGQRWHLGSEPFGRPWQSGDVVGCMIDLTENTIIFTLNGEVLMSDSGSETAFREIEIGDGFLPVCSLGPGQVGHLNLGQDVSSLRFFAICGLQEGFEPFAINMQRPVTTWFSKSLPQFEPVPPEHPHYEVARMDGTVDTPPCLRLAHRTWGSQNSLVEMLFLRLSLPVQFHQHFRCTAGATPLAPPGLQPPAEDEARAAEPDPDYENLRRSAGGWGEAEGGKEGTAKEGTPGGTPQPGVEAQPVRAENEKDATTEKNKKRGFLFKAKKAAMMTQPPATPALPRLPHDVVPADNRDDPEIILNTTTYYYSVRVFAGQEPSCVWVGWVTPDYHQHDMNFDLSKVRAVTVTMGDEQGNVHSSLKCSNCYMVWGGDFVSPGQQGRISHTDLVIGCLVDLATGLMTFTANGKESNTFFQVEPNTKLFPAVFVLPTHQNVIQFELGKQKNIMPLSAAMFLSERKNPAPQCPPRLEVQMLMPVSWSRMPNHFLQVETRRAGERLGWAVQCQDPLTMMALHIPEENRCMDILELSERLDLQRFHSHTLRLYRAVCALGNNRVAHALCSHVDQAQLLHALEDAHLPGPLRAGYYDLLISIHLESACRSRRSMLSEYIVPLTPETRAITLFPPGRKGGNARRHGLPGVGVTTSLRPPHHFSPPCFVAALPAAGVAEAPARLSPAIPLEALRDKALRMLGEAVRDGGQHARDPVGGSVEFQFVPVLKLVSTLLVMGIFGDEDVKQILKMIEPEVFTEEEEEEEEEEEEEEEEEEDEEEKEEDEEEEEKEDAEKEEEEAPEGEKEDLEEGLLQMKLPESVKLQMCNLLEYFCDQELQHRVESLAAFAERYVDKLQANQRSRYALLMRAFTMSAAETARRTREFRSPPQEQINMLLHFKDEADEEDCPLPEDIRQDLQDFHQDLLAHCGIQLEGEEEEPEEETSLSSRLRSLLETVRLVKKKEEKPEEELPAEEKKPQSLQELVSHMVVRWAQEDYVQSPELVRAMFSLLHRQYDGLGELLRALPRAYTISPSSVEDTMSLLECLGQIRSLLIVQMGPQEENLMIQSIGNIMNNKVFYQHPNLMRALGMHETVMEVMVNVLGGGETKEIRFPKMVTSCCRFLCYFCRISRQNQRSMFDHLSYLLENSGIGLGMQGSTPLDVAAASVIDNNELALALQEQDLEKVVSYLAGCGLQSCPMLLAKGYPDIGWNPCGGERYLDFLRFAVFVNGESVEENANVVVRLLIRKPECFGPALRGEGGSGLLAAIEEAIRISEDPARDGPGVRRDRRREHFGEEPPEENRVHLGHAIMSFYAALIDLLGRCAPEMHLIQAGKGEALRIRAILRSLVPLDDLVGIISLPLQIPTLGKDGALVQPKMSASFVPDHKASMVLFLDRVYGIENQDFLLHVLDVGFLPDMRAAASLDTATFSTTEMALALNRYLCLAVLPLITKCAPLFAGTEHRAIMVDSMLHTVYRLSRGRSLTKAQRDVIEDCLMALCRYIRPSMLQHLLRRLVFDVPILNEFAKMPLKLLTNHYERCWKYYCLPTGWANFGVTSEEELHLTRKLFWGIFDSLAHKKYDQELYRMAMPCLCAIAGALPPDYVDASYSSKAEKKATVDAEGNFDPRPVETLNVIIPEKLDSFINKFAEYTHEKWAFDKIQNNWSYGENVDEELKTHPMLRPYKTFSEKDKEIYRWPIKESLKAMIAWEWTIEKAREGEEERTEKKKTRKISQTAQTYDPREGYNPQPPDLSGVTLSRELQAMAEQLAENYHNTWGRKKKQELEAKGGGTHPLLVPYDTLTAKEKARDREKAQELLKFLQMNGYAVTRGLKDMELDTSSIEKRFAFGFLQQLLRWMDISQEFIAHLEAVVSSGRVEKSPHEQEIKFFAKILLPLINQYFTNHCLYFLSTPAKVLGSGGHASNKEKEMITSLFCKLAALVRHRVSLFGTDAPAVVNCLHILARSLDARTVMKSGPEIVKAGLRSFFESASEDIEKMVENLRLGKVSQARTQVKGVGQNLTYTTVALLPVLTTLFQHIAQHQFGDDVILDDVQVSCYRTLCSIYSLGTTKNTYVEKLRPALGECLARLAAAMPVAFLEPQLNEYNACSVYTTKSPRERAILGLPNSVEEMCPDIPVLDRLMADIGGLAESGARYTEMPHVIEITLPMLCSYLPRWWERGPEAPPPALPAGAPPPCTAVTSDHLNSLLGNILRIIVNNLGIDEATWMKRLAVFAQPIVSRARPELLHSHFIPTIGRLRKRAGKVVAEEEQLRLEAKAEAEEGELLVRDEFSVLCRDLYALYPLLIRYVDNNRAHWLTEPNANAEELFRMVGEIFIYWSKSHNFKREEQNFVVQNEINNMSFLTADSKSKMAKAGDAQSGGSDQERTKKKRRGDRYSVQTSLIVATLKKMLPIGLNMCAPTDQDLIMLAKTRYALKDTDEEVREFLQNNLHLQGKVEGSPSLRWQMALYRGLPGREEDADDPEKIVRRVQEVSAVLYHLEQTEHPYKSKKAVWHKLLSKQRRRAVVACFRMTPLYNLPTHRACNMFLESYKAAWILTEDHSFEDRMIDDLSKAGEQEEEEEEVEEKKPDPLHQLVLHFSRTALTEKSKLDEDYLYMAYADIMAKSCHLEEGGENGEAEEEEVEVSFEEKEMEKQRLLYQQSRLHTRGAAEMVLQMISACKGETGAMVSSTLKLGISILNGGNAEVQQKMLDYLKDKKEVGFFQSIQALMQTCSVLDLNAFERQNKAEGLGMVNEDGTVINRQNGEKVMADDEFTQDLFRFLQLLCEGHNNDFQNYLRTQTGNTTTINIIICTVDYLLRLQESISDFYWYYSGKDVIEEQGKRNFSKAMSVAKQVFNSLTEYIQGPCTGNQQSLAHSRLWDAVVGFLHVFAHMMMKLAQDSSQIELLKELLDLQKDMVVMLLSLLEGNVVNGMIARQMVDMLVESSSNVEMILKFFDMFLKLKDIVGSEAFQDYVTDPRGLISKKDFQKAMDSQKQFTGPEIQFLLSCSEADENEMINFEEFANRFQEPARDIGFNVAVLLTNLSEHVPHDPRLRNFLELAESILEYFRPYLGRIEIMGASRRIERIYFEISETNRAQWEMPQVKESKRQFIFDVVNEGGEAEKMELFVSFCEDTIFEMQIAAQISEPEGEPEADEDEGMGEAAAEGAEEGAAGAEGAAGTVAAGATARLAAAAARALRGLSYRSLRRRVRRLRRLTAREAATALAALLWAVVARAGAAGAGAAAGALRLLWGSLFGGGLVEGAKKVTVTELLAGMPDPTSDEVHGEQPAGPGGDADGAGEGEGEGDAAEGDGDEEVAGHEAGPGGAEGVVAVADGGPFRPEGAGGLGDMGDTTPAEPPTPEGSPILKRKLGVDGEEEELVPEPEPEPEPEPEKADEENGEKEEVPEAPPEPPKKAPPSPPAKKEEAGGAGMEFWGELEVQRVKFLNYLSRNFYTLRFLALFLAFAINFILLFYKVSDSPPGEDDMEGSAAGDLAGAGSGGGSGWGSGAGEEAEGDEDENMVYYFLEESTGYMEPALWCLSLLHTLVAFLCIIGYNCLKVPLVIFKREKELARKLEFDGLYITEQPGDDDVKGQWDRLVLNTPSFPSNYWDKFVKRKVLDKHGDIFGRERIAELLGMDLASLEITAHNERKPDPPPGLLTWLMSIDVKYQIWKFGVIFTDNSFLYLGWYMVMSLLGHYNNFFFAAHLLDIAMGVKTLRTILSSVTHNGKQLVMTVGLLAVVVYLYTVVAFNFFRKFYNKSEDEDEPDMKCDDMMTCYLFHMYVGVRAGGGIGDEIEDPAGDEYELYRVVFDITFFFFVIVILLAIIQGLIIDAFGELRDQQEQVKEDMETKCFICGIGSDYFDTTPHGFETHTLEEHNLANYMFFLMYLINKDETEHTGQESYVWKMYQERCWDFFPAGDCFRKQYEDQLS

Row | SMILES | Content of proteoglycanes, anterior sclera ([1]; 3 months treatment) | Content of proteoglycanes, posterior sclera ([1]; 3 months treatment) | Hydroxylysine content ([2]; anterior sclera) | Hydroxyproline content ([2]; anterior sclera) | Proline content ([2]; anterior sclera) | Hydroxyproline Inc. compared to the control ([2]; posterior sclera) | Proline Inc. compared to the control ([2]; posterior sclera) | Hydroxylysine content ([2]; posterior sclera) | Hydroxyproline content ([2]; posterior sclera) | Proline content ([2]; posterior sclera) | Content of proteoglycanes, anterior sclera ([1]; 10 weeks treatment (Example 4)) | Content of proteoglycanes, posterior sclera ([1]; 10 weeks treatment (Example 4)) | Hydroxylysine content ([3]; anterior sclera) | Hydroxyproline content ([3]; anterior sclera) | Proline content ([3]; anterior sclera) | Hydroxylysine content ([3]; posterior sclera) | Hydroxyproline content ([3]; posterior sclera) | Proline content ([3]; posterior sclera) | further results
1 | CNCCC(Oc1ccc(C(F)(F)F)cc1)c1ccccc1 (stereo not drawn) [Fluoxetine, fluoxetine] | 2.2 +/− 0.4* μg PG/mg tissue | 2.6 +/− 0.2 μg PG/mg tissue | 33 +/− 11 nanomol/mg tissue | 619 +/− 40 nanomol/mg tissue | 896 +/− 21 nanomol/mg tissue | 17% | 15% | 41 +/− 13 nanomol/mg tissue | 640 +/− 31 nanomol/mg tissue | 927 +/− 15 nanomol/mg tissue | – | – | – | – | – | – | – | – | Proteoglycanes Decrease compared to the control, anterior sclera ([1]; 3 months treatment): 19%; Hydroxylysine Decr. compared to the control ([2]; anterior sclera): 20%
2 | Cn1cnc2[nH]c(=O)[nH]c(=O)c21 [7-Methylxanthine] | – | – | – | – | – | – | – | – | – | – | 2.5 +/− 0.5 μg PG/mg tissue | 3.3 +/− 0.3 μg PG/mg tissue | 45 +/− 3 nanomol/mg tissue | 667 +/− 73 nanomol/mg tissue | 951 +/− 111 nanomol/mg tissue | 44 +/− 7 nanomol/mg tissue | 719 +/− 81* nanomol/mg tissue | 1018 +/− 108* nanomol/mg tissue | Proteoglycanes Decrease, anterior sclera ([1]; 10 weeks treatment (Example 4)): 14%; Proteoglycanes Increase, posterior sclera ([1]; 10 weeks treatment (Example 4)): 14%; content of proteoglycans in posterior sclera (in words) [1]: near significant increase; Effect on proteoglycan content of posterior sclera in % compared to control [1]: 114%; content of hydroxyproline and proline in posterior sclera (in words) ([2]; Example 4, versus control): significantly higher content; Hydroxylysine Inc. [2, 5]: 7%; Hydroxyproline Inc. [2, 5]: 16%; Proline Inc. [2, 5]: 10%; Effect on [3H ryanodine binding in % compared to control [4]: 204%; Bound [3H]ryanodine % of control [4]: 225 ± 11 % of control; Bound [3H]ryanodine pmol/mg protein [4]: 3.80 ± 0.19 pmol/mg protein; Bound [3H]ryanodine, % of control, +1 mmol/l AMPPCP [4]: 225 ± 11 % of control; Bound [3H]ryanodine, % of control, +3 mmol/l AMP [4]: 214 ± 15 % of control
3 | Cn1cnc2c1c(=O)[nH]c(=O)n2C [Theobromine, 3,7-Dimethylxanthine] | – | – | – | – | – | – | – | – | – | – | 2.6 +/− 0.7 μg PG/mg tissue | 2.5 +/− 0.4 μg PG/mg tissue | 49 +/− 6 nanomol/mg tissue | 751 +/− 53* nanomol/mg tissue | 1073 +/− 78* nanomol/mg tissue | 49 +/− 4* nanomol/mg tissue | 741 +/− 18* nanomol/mg tissue | 1029 +/− 45* nanomol/mg tissue | Proteoglycanes Decrease, anterior sclera ([1]; 10 weeks treatment (Example 4)): 10%; Proteoglycanes Decrease, posterior sclera ([1]; 10 weeks treatment (Example 4)): 14%; content of proteoglycans in posterior sclera (in words) [1]: decrease; Effect on proteoglycan content of posterior sclera in % compared to control [1]: 86%; content of all collagen specific amino acids, except hydroxylysine in anterior sclera (in words) ([2]; all sclera samples, Example 4, versus control): Significant higher content; Hydroxylysine Inc. [2, 5]: 20%; Hydroxyproline Inc. [2, 5]: 19%; Proline Inc. [2, 5]: 20%; Effect on [3H ryanodine binding in % compared to control [4]: 124%; Bound [3H]ryanodine % of control [4]: 160 ± 22 % of control; Bound [3H]ryanodine pmol/mg protein [4]: 2.70 ± 0.37 pmol/mg protein; Bound [3H]ryanodine, % of control, +1 mmol/l AMPPCP [4]: 160 ± 22 % of control; Bound [3H]ryanodine, % of control, +3 mmol/l AMP [4]: 136 ± 8 % of control
4 | Cn1c(=O)c2[nH]cnc2n(C)c1=O.Cn1c(=O)c2[nH]cnc2n(C)c1=O.NCCN [Teofylamin] | 2.4 +/− 0.5 μg PG/mg tissue | 2.7 +/− 0.3 μg PG/mg tissue | 28 +/− 10 nanomol/mg tissue | 653 +/− 39 nanomol/mg tissue | 958 +/− 23 nanomol/mg tissue | 18% | 11% | 28 +/− 15 nanomol/mg tissue | 643 +/− 74 nanomol/mg tissue | 902 +/− 53 nanomol/mg tissue | – | – | – | – | – | – | – | – | Proteoglycanes Decrease compared to the control, anterior sclera ([1]; 3 months treatment): 11%; Hydroxylysine Decr. compared to the control ([2]; anterior sclera): 32%; Hydroxyproline Inc. compared to the control ([2]; anterior sclera): 8%; Proline Inc. compared to the control ([2]; anterior sclera): 8%; Hydroxylysine Decr. compared to the control ([2]; posterior sclera): 35%
5 | NCCC[C@H](N)C(=O)O [L-ornithine] | – | – | – | – | – | – | – | – | – | – | 3.0 +/− 1.1 μg PG/mg tissue | 3.0 +/− 0.9 μg PG/mg tissue | 37 +/− 4 nanomol/mg tissue | 605 +/− 37 nanomol/mg tissue | 875 +/− 48 nanomol/mg tissue | 38 +/− 5 nanomol/mg tissue | 611 +/− 24 nanomol/mg tissue | 871 +/− 35 nanomol/mg tissue | Hydroxylysine Decr. [2, 5]: 7%
6 | N[C@@H](CSSC[C@H](N)C(=O)O)C(=O)O [L-cystine] | 3.5 +/− 0.5* μg PG/mg tissue | 3.5 +/− 0.4* μg PG/mg tissue | 45 +/− 10 nanomol/mg tissue | 599 +/− 41 nanomol/mg tissue | 885 +/− 22 nanomol/mg tissue | 9% | 7% | 43 +/− 8 nanomol/mg tissue | 596 +/− 39 nanomol/mg tissue | 867 +/− 14 nanomol/mg tissue | – | – | – | – | – | – | – | – | Proteoglycanes Increase compared to the control, anterior sclera ([1]; 3 months treatment): 29%; Proteoglycanes Increase compared to the control, posterior sclera ([1]; 3 months treatment): 29%
7 | CC(=O)Nc1nnc(S(N)(=O)=O)s1 [Acetazolamide, acetazolamide] | – | – | – | – | – | – | – | – | – | – | 2.9 +/− 0.4 μg PG/mg tissue | 2.8 +/− 0.8 μg PG/mg tissue | 41 +/− 4 nanomol/mg tissue | 596 +/− 27* nanomol/mg tissue | 843 +/− 47* nanomol/mg tissue | 38 +/− 6 nanomol/mg tissue | 563 +/− 91 nanomol/mg tissue | 781 +/− 125 nanomol/mg tissue | content of hydroxyproline and proline in anterior sclera (in words) ([2]; Example 4, versus control, significantly): reduced; Hydroxylysine Decr. [2, 5]: 7%; Hydroxyproline Decr. [2, 5]: 10%; Proline Decr. [2, 5]: 10%
